This note sets out measurements from PMC9863987, “Identification of Aryl Polyamines Derivatives as Anti-Trypanosoma cruzi Agents Targeting Iron Superoxide Dismutase” (Pharmaceutics, 2022).

Structures are written as SMILES. Counter-ions that a name gives are not always drawn.

Test [1] has as its system T. cruzi Arequipa strain epimastigotes. Briefly: Screening against extracellular epimastigotes, Arequipa strain (resazurin). In kind it is cell-based, Trypanosoma cruzi. The note with it: for IC50: Trypanosoma cruzi, epimastigotes, 48 h treatment + 24 h resazurin, mean of three ± SD, read-out: Activity IC50 T. cruzi Arequipa Strain E; for Selectivity Index T. cruzi Arequipa Strain E: IC50 Vero cells/IC50 epimastigotes. As to the method:
(§1) Three different T. cruzi […] strains—MHOM/Pe/2011/Arequipa, discrete typing unit (DTU) V [26]; IRHOD/CO/2008/SN3, DTU I [27]; TINF/CH/1956/Tulahuen, DTU VI [26]—were grown at 28 °C in Gibco® RPMI 1640 Medium supplemented as previously reported, and used for in vitro screening.
(§2) Trypanocidal activity against epimastigotes was tested as previously reported. In brief, 5 × 10^5 mL^−1 epimastigotes culture medium were treated by adding the compounds in serial dilutions from 100 to 0.2 µM in 96-well plates (200 µL·well^−1) for 48 h. BZN and untreated growth control were also included in triplicate. Later, 20 μL of resazurin sodium salt (Sigma-Aldrich, St. Louis, MO, USA) was added, and the plates were incubated for another 24 h. Finally, the absorbance of the wells was measured at 570/600 nm and related to the control. The trypanocidal activity was expressed as the IC50 (inhibitory concentration 50) value using GraphPad Prism 6 software.

Test [2] has as its system T. cruzi SN3 strain epimastigotes. Briefly: Screening against extracellular epimastigotes, SN3 strain (resazurin). Format: cell-based, Trypanosoma cruzi. The note with it: for IC50: Trypanosoma cruzi, epimastigotes, 48 h treatment + 24 h resazurin, mean of three ± SD, read-out: Activity IC50 T. cruzi SN3 Strain E; for Selectivity Index T. cruzi SN3 Strain E: IC50 Vero cells/IC50 epimastigotes. The protocol:
as §1, §2

The test system of test [3] is T. cruzi Tulahuen strain epimastigotes. Description: Screening against extracellular epimastigotes, Tulahuen strain (resazurin). The conditions noted are these: for IC50: Trypanosoma cruzi, TULAHUEN, epimastigotes, 48 h treatment + 24 h resazurin, mean of three ± SD, read-out: Activity IC50 T. cruzi Tulahuen Strain E; for Selectivity Index T. cruzi Tulahuen Strain E: IC50 Vero cells/IC50 epimastigotes. Format: cell-based, Trypanosoma cruzi. The protocol:
as §1, §2
A general note: The colour change of resazurin is a common sign of viable cells or microbes.

Another test has as its system Vero cells. Briefly: Cytotoxicity test on mammalian Vero cells (resazurin). The note with it: Chlorocebus sabaeus, 48 h treatment + 24 h resazurin, mean of three ± SD, read-out: Toxicity IC50 Vero Cell. Format: cell-based. As to the method: Cytotoxicity against mammalian Vero cells (EACC No. 84113001) was tested as previously reported. In brief, 1.25 × 10^4 Vero cells·mL^−1, cultured at 37 °C, were treated by adding the compounds in serial dilutions from 400 to 1 µM in 96-well plates (200 µL·well^−1) for 48 h. BZN and untreated controls were also included in triplicate. Later, 20 μL of resazurin sodium salt (Sigma-Aldrich) was added, and the plates were incubated for another 24 h. Finally, cell viability was determined following the same procedure as described to assess the trypanocidal activity in the epimastigotes.

For test [4], the system named is T. cruzi Arequipa strain amastigotes. Description: Screening against intracellular amastigotes in Vero cells, Arequipa strain (Giemsa counting). Format: cell-based, Trypanosoma cruzi. As to the method:
(§3) TINF/CH/1956/Tulahuen, DTU VI [26]—were grown at 28 °C in Gibco® RPMI 1640 Medium supplemented as previously reported, and used for in vitro screening. Trypanocidal activity against amastigotes was tested as previously reported. In brief, bloodstream trypomastigotes (BTs), obtained by cardiac puncture from infected BALB/c mice, were used to infect 1 × 10^4 Vero cells·well^−1 in 24-well plates with rounded coverslips at a multiplicity of infection (MOI) ratio of 10:1. After 24 h of infection, non-internalized trypomastigotes were washed and the infected cells were treated by adding the compounds in serial dilutions from 50 to 0.5 µM in […] for 72 h. BZN and untreated growth controls were also included in triplicate. Later, the number of amastigotes and infected cells were determined in Giemsa stained preparations by analysing 500 host cells randomly distributed in microscopic fields. The trypanocidal activity was expressed as the IC50 using GraphPad Prism 6 software (version 6.07).

Test [5] relates to T. cruzi Arequipa strain trypomastigotes. Description: Screening against bloodstream trypomastigotes, Arequipa strain (resazurin). Format: cell-based, Trypanosoma cruzi.
The subject of test [6] is T. cruzi Tulahuen strain amastigotes. Briefly: Screening against intracellular amastigotes in Vero cells, Tulahuen strain (Giemsa counting). In kind it is cell-based, Trypanosoma cruzi. As to the method:
as §3

Test [7] has as its system T. cruzi Tulahuen strain trypomastigotes. Description: Screening against bloodstream trypomastigotes, Tulahuen strain (resazurin). In kind it is cell-based, Trypanosoma cruzi.
[8] abbreviates: IC50 Vero cells/IC50 amastigotes.
The mark [9] stands for this setting: IC50 Vero cells/IC50 trypomastigotes.

As for `c1ccc(CNCCN(CCNCc2ccccn2)Cc2ccc3ccccc3c2)nc1` [Compound 1], the figures for the IC50 in test [1], in test [2] and in test [3] were 28.3 ± 2.4 µM, 27.1 ± 2.1 µM and 26 ± 2.7 µM, respectively. Besides, the CC50 with Vero cells came to 58.1 ± 6 µM.

For the molecule `c1cncc(CNCCN(CCNCc2cccnc2)Cc2ccc3ccccc3c2)c1` [Compound 2], the “Selectivity Index T. cruzi Arequipa Strain E” value in test [1] was determined as 13.5. In addition, the IC50 in test [1] amounted to 2.9 ± 0.3 µM; in test [4] (Trypanosoma cruzi, amastigotes in Vero cells, 72 h, mean of three ± SD) it was 6.2 ± 0.6 µM; in test [5] (Trypanosoma cruzi, trypomastigotes, 24 h + 4 h resazurin, mean of three ± SD), 4.8 ± 0.5 µM; in test [2], 5.7 ± 0.5 µM; in test [3], 15.8 ± 1.4 µM. Besides, the “Selectivity Index T. cruzi Arequipa Strain A” value in test [4] (setting [8]) was determined as 6.2. Further, the “Selectivity Index T. cruzi Arequipa Strain T” value in test [5] (setting [9]) came to 8.0. In addition, the “Selectivity Index T. cruzi SN3 Strain E” value in test [2] is reported as 6.7. Moreover, in test [3], the “Selectivity Index T. cruzi Tulahuen Strain E” value turned out to be 2.4. For the same molecule, in the test with Vero cells, the CC50 was determined as 38.5 ± 4.1 µM.

As to `c1ccc2cc(CN(CCNCc3ccncc3)CCNCc3ccncc3)ccc2c1` [Compound 3], the IC50 in test [1] worked out at 18.7 ± 1.6 µM; in test [2], 21.8 ± 1.9 µM; in test [3], 19.2 ± 1.7 µM. The CC50 in the test with Vero cells was 25.8 ± 2.7 µM.

As for `c1ccc2cc(CN(CCNCc3ccnc4ccccc34)CCNCc3ccnc4ccccc34)ccc2c1` [Compound 4, 1,7-Bis(4-quinolylmethyl)-4-(2-naphthylmethyl)-1,4,7-triazaheptane Pentahydrochloride], the values for the IC50 in test [1], in test [2] and in test [3] were 25.2 ± 2.7 µM, 11 ± 1 µM and 22.6 ± 3.3 µM, respectively. The CC50 with Vero cells was found to be 5.3 ± 0.4 µM.

With `O=C(NCCN(CCNC(=O)c1ccccn1)Cc1ccc2ccccc2c1)c1ccccn1` [Compound 6], the half-maximal inhibitory concentration (IC50) in test [1] stood at 12 ± 1.1 µM; in test [2], 10 ± 1.2 µM; in test [3], 16.1 ± 1.7 µM. Besides, the CC50 in the test with Vero cells turned out to be 63.2 ± 5.7 µM.

For the molecule `CN(C)c1cccc2c(S(=O)(=O)N(CCNCc3ccccn3)CCNCc3ccccn3)cccc12` [Compound 7], the half-inhibitory concentration (IC50) worked out at 11.5 ± 1.1 µM in test [1], 10.4 ± 1.1 µM in test [2] and 12.1 ± 1.1 µM in test [3]. Moreover, in the test with Vero cells, the CC50 came out at 41.3 ± 3.7 µM.

With `CN(C)c1cccc2c(S(=O)(=O)N(CCNCc3cccnc3)CCNCc3cccnc3)cccc12` [Compound 8], the “Selectivity Index T. cruzi Arequipa Strain E” value in test [1] was 2.8. For the same molecule, the IC50 was 48.1 ± 3.9 µM in test [1]; 36.4 ± 3.4 µM in test [2]; 10 ± 1.1 µM in test [3]; 17 ± 1.5 µM in test [6] (Trypanosoma cruzi, TULAHUEN, amastigotes in Vero cells, 72 h, mean of three ± SD); 12.2 ± 1.2 µM in test [7] (Trypanosoma cruzi, TULAHUEN, trypomastigotes, 24 h + 4 h resazurin, mean of three ± SD). For the same molecule, in test [2], the “Selectivity Index T. cruzi SN3 Strain E” value was found to be 3.7. The “Selectivity Index T. cruzi Tulahuen Strain E” value in test [3] amounted to 13.7. In test [6] (setting [8]), the “Selectivity Index T. cruzi Tulahuen Strain A” value was 8.0. In test [7] (setting [9]), the “Selectivity Index T. cruzi Tulahuen Strain T” value is on record as 11.2. For the same molecule, the CC50 with Vero cells is 136 ± 14.8 µM.

Take `CN(C)c1cccc2c(S(=O)(=O)N(CCNC(=O)c3ccccn3)CCNC(=O)c3ccccn3)cccc12` [Compound 9]: the figures for the IC50 in test [1], in test [2] and in test [3] were 12.4 ± 1.2 µM, 59.6 ± 6.2 µM and 39.3 ± 4.2 µM, respectively. Also, the CC50 in the test on Vero cells is 49.3 ± 5 µM.

`O=S(=O)(c1cccc2ccccc12)N(CCNCc1ccccn1)CCNCc1ccccn1` [Compound 10]: the IC50 in test [1] stood at 15.2 ± 1.8 µM; in test [2] it was 14.3 ± 1.8 µM; in test [3], 12.9 ± 1.8 µM. Moreover, the CC50 in the test with Vero cells came out at 14.9 ± 1.3 µM.

As for `CN(CCNCc1ccccn1)CCNCc1ccccn1` [Compound 11], the results for the IC50 in test [1], in test [2] and in test [3] were 12.8 ± 1.7 µM, 21.4 ± 2 µM and 30 ± 2.7 µM, respectively. Also, the CC50 in the test on Vero cells is 23.3 ± 2.1 µM.

For the molecule `CN(CCNCc1ccncc1)CCNCc1ccncc1` [Compound 12], the IC50 in test [1] came to 104 ± 12.8 µM; in test [2], 87.5 ± 9 µM; in test [3], 95.2 ± 8.4 µM. Also, the CC50 with Vero cells worked out at 188 ± 20.4 µM.

On to `O=S(=O)(c1cccc2cccnc12)N(CCNCc1ccccn1)CCNCc1ccccn1` [Compound 13], for which the IC50 was 12.7 ± 1.4 µM in test [1], 5.5 ± 4.9 µM in test [2] and 21 ± 1.8 µM in test [3]. Besides, the CC50 with Vero cells was 28.3 ± 2.4 µM.

With `c1cc2nc(c1)CNCCN(CCNCc1ccc3[nH]ncc3c1)CCNC2` [Compound 14], the IC50 in test [1] came to 18.3 ± 1.4 µM; in test [2], 25.8 ± 2.7 µM; in test [3], 22.4 ± 2.1 µM. Further, the CC50 in the test with Vero cells came out at 60.3 ± 7 µM.

For `c1cc(CNCCN2CCNCc3cccc(n3)CNCC2)nc(CNCCN2CCNCc3cccc(n3)CNCC2)c1` [Compound 16], the IC50 in test [1] was determined as 102 ± 9.8 µM; in test [2], 155 ± 14.9 µM; in test [3] it was 129 ± 14.7 µM. In addition, the CC50 in the test with Vero cells turned out to be 136 ± 14.7 µM.

The IC50 is the concentration at which inhibition is half-maximal.
